The results in this text go back to publication PMC10336775 (Proteins, 2022).

The target of the assay is afRubisco (Archaeoglobus fulgidus, UniProt O28635). In words: coupled NADH assay of 3PGA formed. In kind it is biochemical. As to conditions: 2 mM RuBp, 10 mM NaHCO3, 20 mM MgCl2, pH 8.2, 65 C; carboxylase activity.
Chain of afRubisco (O28635 whole entry): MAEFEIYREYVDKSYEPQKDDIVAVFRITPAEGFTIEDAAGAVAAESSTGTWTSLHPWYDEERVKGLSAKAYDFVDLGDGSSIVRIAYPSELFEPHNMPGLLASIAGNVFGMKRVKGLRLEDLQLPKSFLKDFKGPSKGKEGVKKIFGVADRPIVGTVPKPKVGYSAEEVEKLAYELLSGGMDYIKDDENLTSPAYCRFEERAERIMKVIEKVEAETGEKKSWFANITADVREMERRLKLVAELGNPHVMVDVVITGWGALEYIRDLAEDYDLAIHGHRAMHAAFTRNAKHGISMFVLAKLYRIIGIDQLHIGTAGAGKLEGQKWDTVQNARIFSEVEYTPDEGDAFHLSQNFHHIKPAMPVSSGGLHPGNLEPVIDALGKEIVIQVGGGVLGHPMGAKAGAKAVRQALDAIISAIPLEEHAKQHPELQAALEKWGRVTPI

For `O=C(COP(=O)(O)O)[C@H](O)[C@H](O)COP(=O)(O)O` [RuBp], the “coupled NADH assay of 3PGA formed (340 nm)” value was “Activated afRubisco has very low carboxylase activity at room temperature but has much higher”.
